Series [1] concerns PC3 and PC3-ERG prostate cancer cells. Put plainly: Clonogenic growth inhibition assay for ETS positive and ETS negative lines. Type of series: cell-based. The settings on record: PC3 vs PC3-ERG (ETS overexpression); FIG. 1A-C. An excerpt: Clonogenic Assay: Growth Inhibition Assay for ETS Positive and ETS Negative Lines. […] Then, cells were washed three times with PBS, trypsinized, and replated onto 6 well plates at desired cell densities. Every 3 days the media was replaced with fresh media containing compound. After typically 10-18 days, the cells were fixed and surviving colonies were stained with 0.1% crystal violet and counted by Image Quant (BD biosciences).

The test system of another series is LNCaP-HR tumor. As to the kind of experiment: Castration-resistant LNCaP (LNCaP-HR) prostate cancer in vivo xenograft model. The conditions noted are these: castrated male SCID mice, oral QD up to 15 days, 1 to 5 mg/kg; FIG. 5. The method, then:
Castration-Resistant LNCaP (LNCaP-HR) Prostate Cancer In Vivo Xenograft Model A xenograft study was conducted with castration resistant LNCaP-HR tumor-bearing mice. Castrated male SCID mice were inoculated subcutaneously with LNCaP-HR cells in the flank region above the right hind leg. Following inoculation of animals, the tumors were allowed to grow to about 325 mm^3 prior to randomization. On Day 26 following tumor cell inoculation, the mice bearing LNCaP-HR tumors ranging between 98 and 530 mm^3 were pooled together and randomized into various treatment groups. […] The positive control MDV-3100 (50 mg/kg, Q4D) was administered via oral route. MDV-3100 was formulated in 1% CMC, 0.1% Tween 80 and 5% dimethyl sulfoxide (DMSO) in water (as a suspension). Tumors were measured twice a week using calipers and tumor volumes were calculated using the formula of W2×L/2 (wherein “W” is tumor width and “L” is tumor length). Statistical analysis was performed using a one-way analysis of variance (ANOVA) followed by Dunnett's post-hoc comparison with the vehicle-treated control group.

The test system of series [2] is ETS-positive (VCaP and LNCaP) and ETS-negative (PC3 and DU145) prostate cancer cell lines. As to the kind of experiment: Caspase 3/7-Glo apoptosis assay for ETS positive and ETS negative lines. The format is cell-based. The settings on record: single treatment, 48 hours; FIG. 2. The method, then: Caspase Analysis: Apoptosis Assay for ETS Positive and ETS Negative Lines. […] Cells were then directly seeded at desired densities to the Compound 1-spotted 384-well plates. Cells were cultured for 48 hours at 37° C./5% CO2 and were assessed via Caspase 3/7-Glo (Promega Corporation, Madison, Wis.) and read for luminescence.

Series [3] relates to LNCaP, VCaP, DU145 or PC3 prostate cancer cell lines. As to the kind of experiment: Matrigel cell invasion assay for ETS positive and ETS negative lines. The format is cell-based. The settings on record: 10 μM, 48 hours treatment; FIG. 3. The method, then:
Cell Invasion Assay for ETS Positive and ETS Negative Lines. […] Then cells were tripsinized and re-seeded onto BD biocoat matrigel invasion chamber insert with […] of a 24-well culture plate in serum free media. Cells were then attracted to the lower chamber by the addition of complete media as a chemoattractant. After 48 hours incubation at 37° C./5% CO2, the non-invading cells and EC matrix were gently removed with a cotton swab. Invasive cells, which were located on the lower side of the membrane, were stained with crystal violet, air dried and photographed (FIG. 3).

Series [4] concerns ETS positive prostate cancer cells (VCAP and LNCAP). As to the kind of experiment: COMET DNA damage assay. Type of series: cell-based. The settings on record: FIG. 4. The text has this:
DNA Damage Assays: COMET Assay.

“1-ethyl-7-(2-methyl-6-(1H-1,2,4-triazol-3-yl)pyridin-3-yl)-3,4-dihydropyrazino[2,3-b]pyrazin-2(1H)-one [Compound 1]”: the “clonogenic growth inhibition (surviving colonies)” value in series [1] is “ETS overexpression sensitizes PC3 cells to inhibition”. In addition, the “LNCaP-HR prostate cancer tumor growth” value with LNCaP-HR tumor is listed as “significantly inhibited”. In series [2], the “Caspase activity (apoptosis)” value was “increased apoptosis in ETS positive cell lines”. In addition, in series [3], the cell invasion entry is “reduced cell invasion”. Further, the “DNA damage (COMET tail moments)” value in series [4] is recorded as “potentiates DNA damage in ETS positive cells”.

Values taken from patent US20130245028A1, “TREATMENT OF CANCER WITH TOR KINASE INHIBITORS” (SIGNAL PHARMACEUTICALS, LLC, priority 2012, published 2013).
